In ChEMBL document CHEMBL5390254, “Discovery and Optimization of Novel hDHODH Inhibitors for the Treatment of Inflammatory Bowel Disease” (J Med Chem, 2023):
The source made the active and inactive calls. The calls are words filed in the database; no cut-off is given here.

Assays:
[1] = Metabolic stability in rat liver microsomes assessed as half life at 3 uM incubated upto 90 mins in presence of NADPH by LC-MS/MS analysis; type: ADME, Microsome
[2] = Metabolic stability in mouse liver microsomes assessed as half life at 3 uM incubated upto 90 mins in presence of NADPH by LC-MS/MS analysis; type: ADME, Microsome
[3] = Metabolic stability in human liver microsomes assessed as intrinsic clearance at 3 uM incubated upto 90 mins in presence of NADPH by LC-MS/MS analysis; type: ADME, Microsome; settings: read-out: CLH
[4] = Acute toxicity in BALB/c mouse assessed as death at 600 mg/kg,po and measured for 14 days; type: organism-based; settings: in vivo, 336 h, time 14 day
[5] = Acute toxicity in BALB/c mouse assessed as changes in hemoglobin level in blood at 600 mg/kg,po and measured after 14 days by hematology test; type: organism-based; settings: in vivo, 336 h, time 14 day
[6] = Acute toxicity in BALB/c mouse assessed as changes in WBC level in blood at 600 mg/kg,po and measured after 14 days by hematology test; type: organism-based; settings: in vivo, 336 h, time 14 day
[7] = Acute toxicity in BALB/c mouse assessed as changes in lymph level in blood at 600 mg/kg,po and measured after 14 days by hematology test; type: organism-based; settings: in vivo, 336 h, time 14 day
[8] = Acute toxicity in BALB/c mouse assessed as changes in CK level in serum at 600 mg/kg,po and measured after 14 days by Biochemistry analysis; type: organism-based; settings: in vivo, 336 h, time 14 day
[9] = Acute toxicity in BALB/c mouse assessed as changes in LDH level in serum at 600 mg/kg,po and measured after 14 days by Biochemistry analysis; type: organism-based; settings: in vivo, 336 h, time 14 day
[10] = Acute toxicity in BALB/c mouse assessed as changes in AST level in serum at 600 mg/kg,po and measured after 14 days by Biochemistry analysis; type: organism-based; settings: in vivo, 336 h, time 14 day
[11] = Acute toxicity in BALB/c mouse assessed as changes in ALT level in serum at 600 mg/kg,po and measured after 14 days by Biochemistry analysis; type: organism-based; settings: in vivo, 336 h, time 14 day
[12] = Acute toxicity in BALB/c mouse assessed as changes in urea level in serum at 600 mg/kg,po and measured after 14 days by Biochemistry analysis; type: organism-based; settings: in vivo, 336 h, time 14 day
[13] = Acute toxicity in BALB/c mouse assessed as tissue damage in heart at 600 mg/kg,po and measured after 14 days by hematoxylin and eosin staining based microscopy; type: organism-based; settings: in vivo, 336 h, time 14 day
[14] = Acute toxicity in BALB/c mouse assessed as tissue damage in spleen at 600 mg/kg,po and measured after 14 days by hematoxylin and eosin staining based microscopy; type: organism-based; settings: in vivo, 336 h, time 14 day
[15] = Acute toxicity in BALB/c mouse assessed as tissue damage in kidney at 600 mg/kg,po and measured after 14 days by hematoxylin and eosin staining based microscopy; type: organism-based; settings: in vivo, 336 h, time 14 day
[16] = test system: Mus musculus; assay: Anti-inflammatory activity against DSS-induced acute ulcerative colitis in C57BL/6 mouse model assessed as decrease in IL-6 mRNA expression level in colon at 40 mg/kg, po QD for 6 days by RT-PCR analysis; type: functional, organism-based; settings: time 6.0 day
[17] = test system: Mus musculus; assay: Anti-inflammatory activity against DSS-induced acute ulcerative colitis in C57BL/6 mouse model assessed as decrease in IL-17 mRNA expression level in colon at 40 mg/kg, po QD for 6 days by RT-PCR analysis; type: functional, organism-based; settings: time 6.0 day
[18] = test system: Mus musculus; assay: Anti-inflammatory activity against DSS-induced acute ulcerative colitis in C57BL/6 mouse model assessed as decrease in IL-1beta mRNA expression level in colon at 40 mg/kg, po QD for 6 days by RT-PCR analysis; type: functional, organism-based; settings: time 6.0 day
[19] = test system: Mus musculus; assay: Anti-inflammatory activity against DSS-induced acute ulcerative colitis in C57BL/6 mouse model assessed as decrease in IL-17 production in colon at 40 mg/kg, po QD for 6 days by ELISA; type: functional; design: scale not given: the % may be the effect or the level left; settings: time 6 day
[20] = test system: Mus musculus; assay: Anti-inflammatory activity against DSS-induced acute ulcerative colitis in C57BL/6 mouse model assessed as decrease in IL-1beta production in colon at 40 mg/kg, po QD for 6 days by ELISA; type: functional; design: scale not given: the % may be the effect or the level left; settings: time 6 day
[21] = Drug distribution in colon of DSS-induced acute ulcerative colitis in C57BL/6 mouse model at 40 mg/kg,po and measured after 0.5 hrs by LC-MS/MS analysis; type: ADME, organism-based; settings: in vivo
[22] = AUCt in Sprague-Dawley rat at 5 mg/kg, iv and measured upto 48 hrs by LC-MS/MS analysis; type: ADME, organism-based; design: dose 5 mg/kg, time < 48 hrs, route iv; settings: in vivo
[23] = Clearance in Sprague-Dawley rat at 5 mg/kg, iv and measured upto 48 hrs by LC-MS/MS analysis; type: ADME, organism-based; settings: in vivo
[24] = Cmax in Sprague-Dawley rat at 5 mg/kg, iv and measured upto 48 hrs by LC-MS/MS analysis; type: ADME, organism-based; design: time < 48 hrs, dose 5 mg/kg, route iv; settings: in vivo
[25] = Apparent volume of distribution during terminal phase in Sprague-Dawley rat at 5 mg/kg, iv and measured upto 48 hrs by LC-MS/MS analysis; type: ADME, organism-based; settings: in vivo
[26] = Tmax in Sprague-Dawley rat at 15 mg/kg, po and measured upto 48 hrs by LC-MS/MS analysis; type: ADME, organism-based; settings: in vivo
[27] = Half life in Sprague-Dawley rat at 15 mg/kg, po and measured upto 48 hrs by LC-MS/MS analysis; type: ADME, organism-based; settings: in vivo
[28] = Cmax in Sprague-Dawley rat at 15 mg/kg, po and measured upto 48 hrs by LC-MS/MS analysis; type: ADME, organism-based; design: dose 15 mg/kg, time < 48 hrs, route po; settings: in vivo
[29] = test system: Mus musculus; assay: Anti-inflammatory activity against DSS-induced acute ulcerative colitis in C57BL/6 mouse model assessed as decrease in body weight loss at 40 mg/kg, po QD for 6 days (Rvb= -13.4%); type: functional; design: scale not given: the % may be the effect or the level left; settings: time 6 day
[30] = test system: Mus musculus; assay: Anti-inflammatory activity against DSS-induced acute ulcerative colitis in C57BL/6 mouse model assessed as decrease in body weight loss at 80 mg/kg, po QD for 6 days (Rvb= -13.4%); type: functional; design: scale not given: the % may be the effect or the level left; settings: time 6 day
[31] = test system: Mus musculus; assay: Anti-inflammatory activity against DSS-induced acute ulcerative colitis in C57BL/6 mouse model assessed as decrease in DAI score at 20 to 80 mg/kg, po QD for 6 days; type: functional, organism-based; settings: dose 20-80 mg/kg, time 6.0 day
[32] = test system: Mus musculus; assay: Anti-inflammatory activity against DSS-induced acute ulcerative colitis in C57BL/6 mouse model assessed as increase in colon length at 80 mg/kg, po QD for 6 days (Rvb= 5.3cm); type: functional; settings: time 6 day
[33] = test system: Mus musculus; assay: Anti-inflammatory activity against DSS-induced acute ulcerative colitis in C57BL/6 mouse model assessed as decrease in IL-6 mRNA expression level in colon at 20 to 80 mg/kg, po QD for 6 days by RT-qPCR analysis; type: functional, organism-based; settings: dose 20-80 mg/kg, time 6.0 day
[34] = test system: Mus musculus; assay: Anti-inflammatory activity against DSS-induced acute ulcerative colitis in C57BL/6 mouse model assessed as decrease in IL-17 mRNA expression level in colon at 20 to 80 mg/kg, po QD for 6 days by RT-qPCR analysis; type: functional, organism-based; settings: dose 20-80 mg/kg, time 6.0 day
[35] = test system: Mus musculus; assay: Anti-inflammatory activity against DSS-induced acute ulcerative colitis in C57BL/6 mouse model assessed as decrease in IL-6 protein level in colon at 20 to 80 mg/kg, po QD for 6 days by ELISA; type: functional, organism-based; settings: dose 20-80 mg/kg, time 6.0 day
[36] = test system: Mus musculus; assay: Anti-inflammatory activity against DSS-induced acute ulcerative colitis in C57BL/6 mouse model assessed as decrease in IL-17 protein level in colon at 20 to 80 mg/kg, po QD for 6 days by ELISA; type: functional, organism-based; settings: dose 20-80 mg/kg, time 6.0 day

For `Nc1nc(-c2cn(Cc3c(F)cccc3Cl)c3ncccc23)ncc1C1CC1`, the half-life at 3 µM [1] was 7.8 min, the half-life at 3 µM [2] was 9.4 min and the CLint scaled at 3 µM [3] was 91.8 mL/min/kg. For the same molecule, the Activity [4] was “Non-Toxic”, the Activity [5] was “Non-Toxic” and the Activity [6] was “Non-Toxic”. For the same molecule, the Activity [7] was “Non-Toxic”, the Activity [8] was “Non-Toxic” and the Activity [9] was “Non-Toxic”. The Activity [10] was “Non-Toxic”, the Activity [11] was “Non-Toxic” and the Activity [12] was “Non-Toxic”. For the same molecule, the Activity [13] was “Non-Toxic”, the Activity [14] was “Non-Toxic” and the Activity [15] was “Non-Toxic”. The Activity [16] was “Active”, the Activity [17] was “Active” and the Activity [18] was “Active”. For the same molecule, the Activity [19] was 57.35%, the Activity [20] was 84.32% and the Drug uptake [21] was “Active”. The AUC(0-t) at 48 h [22] was 17900 ng·h/mL, the clearance [23] was 5 mL/min/kg and the Cmax [24] was 12300 ng/mL. The Vz/F [25] was 1.05 L/kg, the Tmax [26] was 120 min and the half-life [27] was 96 min. For the same molecule, the Cmax [28] was 2680 ng/mL, the Activity [29] was -4.2% and the Activity [30] was 1.4%. For the same molecule, the Activity [31] was “Dose-Dependent Effect”, the Activity [32] was 7.5 cm and the Activity [33] was “Dose-Dependent Effect”. The Activity [34] was “Dose-Dependent Effect”, the Activity [35] was “Dose-Dependent Effect” and the Activity [36] was “Dose-Dependent Effect”.
